Measured values as given in ChEMBL document CHEMBL1152316, “Caryophyllenes from a fungal culture of Chrysosporium pilosum” (2009).
In brackets after ≈: the same amount, converted by molar mass. Activity calls are given as the source filed them. The calls are words filed in the database; no cut-off is given here.

Tests used:
[1] = tested on: Saccharomyces cerevisiae; test: Antifungal activity against Saccharomyces cerevisiae PM503 assessed as zone of inhibition after 48 hrs; format: functional, organism-based
[2] = tested on: Saccharomyces cerevisiae; test: Antifungal activity against Saccharomyces cerevisiae PM503 after 48 hrs; format: functional; details: PM503, 48 h

C/C1=C/C(=O)[C@@H](O)[C@@]2(CO2)[C@@H]2CC(C)(C)[C@H]2CC1
Activity [1]: inactive

C/C1=C/C(=O)[C@@H](O)[C@@H](CO)[C@@H]2CC(C)(C)[C@H]2CC1
MIC [2]: 60 µg/mL (≈ 238 µM) | Activity [1]: inactive

C/C1=C/[C@H](O)C(=O)[C@@H](CO)[C@@H]2CC(C)(C)[C@H]2CC1
Activity [1]: inactive

C=C1CC[C@H]2[C@@H](CC2(C)C)[C@H]2CO[C@@](O)(C1)C2=O
Activity [1]: inactive
